Test results from EP4818171A1 (Apeiron Therapeutics (Hong Kong) Ltd., priority 2024, dated 2025).
Like-named read-outs stand apart in the source and are kept apart here.

Assays:
HCT-116 wild-type cells = assay: Inhibitory activity on proliferation of HCT-116 wild-type cells (Cell-Titer Glo); assay type: cell-based; conditions: Homo sapiens, 8 d incubation
Experimental: Cell culture: HCT-116 wild-type cells were cultured with a RPMI-1640 medium containing 10% fetal bovine serum+1% penicillin-streptomycin at 37°C in 5% carbon dioxide. Only cells in the logarithmic growth phase could be used for the test.
Test of cell proliferation activity: Cell-Titer Glo kit was used to test the proliferation inhibitory activity of the compound on HCT-116 wild-type cells. The cell concentration was adjusted, rendering that cells were inoculated into a 384-well plate at 40 µL per well and incubated overnight at 37°C and 5% carbon dioxide. 40 nL of the compound was added to each well to reach a final concentration of 0-10,000 nM (starting concentration 10,000 nM, 2-fold dilution, 10 points), and the cell plate with 0.1% DMSO content was incubated at 37°C and 5% carbon dioxide for 8 d. 40 µL of Cell-Titer Glo reagent was added to test cell viability.

[1] = tested on: LU99 MTAP overexpressing cells; assay: Inhibitory activity on proliferation of LU99 MTAP overexpressing cells (Cell-Titer Glo); assay type: cell-based; conditions: Homo sapiens, Lu-99, 144 h, 6 d incubation
Experimental: Materials and cells: LU99 MTAP overexpressing cell line was purchased from Kyinno Biotechnology (China); cell culture medium and fetal bovine serum were purchased from Thermo Fisher Scientific (USA); 384-well plates were purchased from PerkinElmer (USA); Cell-Titer Glo kits were purchased from Promega (USA).
Cell culture: LU99 MTAP overexpressing cells were cultured with medium containing 10% fetal bovine serum at 37°C in 5% carbon dioxide. Only cells in the logarithmic growth phase could be used for the test.
Test of inhibitory activity on cell proliferation: The Cell-Titer Glo kit was used to test the proliferation inhibitory activity of the compounds on LU99 MTAP overexpressing cells. The cell concentration was adjusted, rendering that cells were inoculated into a 384-well plate at 40 µL per well and incubated overnight at 37°C and 5% carbon dioxide. 40 nL of the compound was added to each well to reach a final concentration of 0-10,000 nM (starting concentration 10,000 nM, 2.5-fold dilution, 10 points), and the cell plate with 0.2% DMSO content was incubated at 37°C and 5% carbon dioxide for 6 d. 40 µL of Cell-Titer Glo reagent was added to test cell viability.

[2] = tested on: LU99 MTAP(-/-)deleted cells; assay: Inhibitory activity on proliferation of LU99 MTAP(-/-)deleted cells (Cell-Titer Glo); conditions: Homo sapiens, Lu-99, 144 h
Experimental: Materials and cells: LU99 MTAP deleted cell line was purchased from Kyinno Biotechnology (China); cell culture medium and fetal bovine serum were purchased from Thermo Fisher Scientific (USA); 384-well plates were purchased from PerkinElmer (USA); Cell-Titer Glo kits were purchased from Promega (USA). Cell culture: LU99 MTAP(-/-)deleted cells were cultured with medium containing 10% fetal bovine serum at 37°C in 5% carbon dioxide. Only cells in the logarithmic growth phase could be used for the test.
Test of inhibitory activity on cell proliferation: The Cell-Titer Glo kit was used to test the proliferation inhibitory activity of the compounds on LU99 MTAP(-/-)deleted cells. The cell concentration was adjusted, rendering that cells were inoculated into a 384-well plate at 40 µL per well and incubated overnight at 37°C and 5% carbon dioxide. […] 40 µL of Cell-Titer Glo reagent was added to test cell viability.

[3] = tested on: HCT-116 MTAP(-/-)deleted cells; assay: Inhibitory activity on proliferation of HCT-116 MTAP(-/-)deleted cells (Cell-Titer Glo); conditions: Homo sapiens, HCT-116, 192 h
Experimental: Only cells in the logarithmic growth phase could be used for the test. […] The cell concentration was adjusted, rendering that cells were inoculated into a 384-well plate at 40 µL per well and incubated overnight at 37°C and 5% carbon dioxide. 40 nL of the compound was added to each well to reach a final concentration of 0-10,000 nM (starting concentration 10,000 nM, 3-fold dilution, 10 points), and the cell plate with 0.1% DMSO content was incubated at 37°C and 5% carbon dioxide for 8 d. 40 µL of Cell-Titer Glo reagent was added to test cell viability.

[4] = read-out: IC50 (nM) Lu99 MTAP(-/-)Deleted, LU99 MTAP(-/-)deleted cells, 6 d incubation, Cell-Titer Glo
[5] = read-out: IC50 (nM) HCT-116 MTAP(-/-)deleted
[6] = read-out: IC50 (nM) HCT-116 MTAP(-/-)deleted, HCT-116 MTAP(-/-)deleted cells, 8 d incubation, Cell-Titer Glo

| Structure (SMILES) | IC50 (HCT-116 wild-type cells; HCT-116, 192 h) [nM] | IC50 [1] [nM] | IC50 [2, 4] [nM] | IC50 [3, 5] [nM] | IC50 [3, 6] [nM] | IC50 (HCT-116 wild-type cells; 192 h) [nM] | IC50 ([2]; read-out: IC50 (nM) Lu99 MTAP(-/-)Deleted) [nM] |
| --- | --- | --- | --- | --- | --- | --- | --- |
| CN(C(=O)c1ccc2nc(N)c3cncn3c2c1)C1COC2(CCCC2)c2cc(C(F)(F)F)ccc21 (stereo not shown) [Example 9, 4-Amino-N-methyl-N-(7'-(trifluoromethyl)spiro[cyclopentane-1,1'-isochroman]-4'-yl)imidazo[1,5-a]quinoxaline-8-carboxamide] | 2220 | 1980 | 10.9 | 6.5 |  |  |  |
| CN(C(=O)c1ccc2nc(N)c3cncn3c2c1)C1COC2(CCOCC2)c2cc(C(F)(F)F)ccc21 (stereo not shown) [Example 12, 4-Amino-N-methyl-N-(7'-(trifluoromethyl)-2',3',5',6'-tetrahydrospiro[isochroman-1,4'-pyran]-4-yl)imidazo[1,5-a]quinoxaline-8-carboxamide] | 1730 | 1640 | 8.8 | 7.64 |  |  |  |
| CN(C(=O)c1cc2c(cc1F)nc(N)c1cncn12)C1COC2(CCC2)c2cc(C(F)(F)F)ccc21 (stereo not shown) [Example 13, 4-Amino-7-fluoro-N-methyl-N-(7'-(trifluoromethyl)spiro[cyclobutane-1,1'-isochroman]-4'-yl)imidazo[1,5-a]quinoxaline-8-carboxamide] | 597 | 773 | 7.8 | 5.3 |  |  |  |
| CN(C(=O)c1cc2c(cc1F)nc(N)c1cncn12)C1COC2(CCOCC2)c2cc(C(F)(F)F)ccc21 (stereo not shown) [Example 16, 4-Amino-7-fluoro-N-methyl-N-(7-(trifluoromethyl)-2',3',5',6'-tetrahydrospiro[isochroman-1,4'-pyran]-4-yl)imidazo[1,5-a]quinoxaline-8-carboxamide] | 1610 | 1290 | 10.8 | 5.9 |  |  |  |
| Cn1cc(N(C(=O)c2ccc3nc(N)c4cncn4c3c2)C2COC3(CCC3)c3cc(C(F)(F)F)ccc32)cn1 (stereo not shown) [Example 17, 4-Amino-N-(1-methyl-1H-pyrazol-4-yl)-N-(7'-(trifluoromethyl)spiro[cyclobutane-1,1'-isochroman]-4'-yl)imidazo[1,5-a]quinoxaline-8-carboxamide] | 324 | 104 | 4.5 | 5.17 |  |  |  |
| Cc1ncc2c(N)nc3cc(F)c(C(=O)N(C)C4COC5(CCOCC5)c5cc(C(F)(F)F)ccc54)cc3n12 (stereo not shown) [Example 19, 4-Amino-7-fluoro-N,1-dimethyl-N-(7-(trifluoromethyl)-2',3',5',6'-tetrahydrospiro[isochroman-1,4'-pyran]-4-yl)imidazo[1,5-a]quinoxaline-8-carboxamide] | 2710 | 1390 | 31.3 | 21.7 |  |  |  |
| Cc1ncn2c1c(N)nc1cc(F)c(C(=O)N(C)C3COC4(CCOCC4)c4cc(C(F)(F)F)ccc43)cc12 (stereo not shown) [Example 20, 4-Amino-7-fluoro-N,3-dimethyl-N-(7-(trifluoromethyl)-2',3',5',6'-tetrahydrospiro[isochroman-1,4'-pyran]-4-yl)imidazo[1,5-a]quinoxaline-8-carboxamide] | 920 | 1070 | 20.5 | 9.46 |  |  |  |
| CN(C(=O)c1ccc2nc(N)c3cncn3c2c1)[C@@H]1COC2(CCC2)c2cc(N3CCNCC3)ncc21 [Example 21, (S)-4-amino-N-methyl-N-(7'-(piperazin-1-yl)-3'-,4'-dihydrospiro[cyclobutane-1,1'-pyrano[4,3-c]pyridine]-4'-yl)imidazo[1,5-a]quinoxaline-8-carboxamide] | > 20000 | 12500 | > 1000 |  | > 1000 |  |  |
| CN(C(=O)c1ccc2nc(N)c3cncn3c2c1)C1COC2(CCC3(CC3)CC2)c2cc(C(F)(F)F)ccc21 (stereo not shown) [Example 23] | 4520 | 3970 | 66.1 | 51.5 |  |  |  |
| CN(C(=O)c1ccc2nc(N)c3cncn3c2c1)C1COC2(CCC2)c2cc(N3CCOCC3)ncc21 (stereo not shown) [Example 28, 4-Amino-N-methyl-N-(7'-morpholinyl-3',4'-dihydrospiro[cyclobutane-1,1'-pyrano[4,3-c]pyridine]-4'-yl)imidazo[1,5-a]quinoxaline-8-carboxamide] | > 10000 | 3880 | 88.5 |  | 110 |  |  |
| CN(C(=O)c1ccc2nc(N)c3cncn3c2c1)[C@@H]1COC2(CCC2)c2cc(N3CC[Si](C)(C)CC3)ncc21 [Example 34] |  | 1430 |  | 40 |  | 5250 | 41.5 |
| CN(C(=O)c1ccc2nc(N)c3cncn3c2c1)[C@@H]1COC2(CCC2)c2cc(-n3cc(C(F)(F)F)cn3)ncc21 [Example 45, (S)-4-amino-N-methyl-N-(7'-(4-(trifluoromethyl)-1H-pyrazol-1-yl)-3',4'-dihydrospiro[cyclobutane-1,1'-pyrano[4,3-c]pyridine]-4'-yl)imidazo[1,5-a]quinoxaline-8-carboxamide] | 7050 | 4710 | 30.2 | 34.1 |  |  |  |
| CN(C(=O)c1ccc2nc(N)c3cncn3c2c1)[C@@H]1COC2(CCC2)c2cc(N3C4COCC3C4)ncc21 [Example 48, N-((4'S)-7'-(3-oxa-6-azabicyclo[3.1.1]heptane-6-yl)-3',4'-dihydrospiro[cyclobutane-1,1'-pyrano[4,3-c]pyridine]-4'-yl)-4-amino-N-methylimidazo[1,5-a]quinoxaline-8-carboxamide] | > 20000 | 10600 | 150 | 144 |  |  |  |
| Cc1ncc2c(N)nc3cc(F)c(C(=O)N(C)C4COC5(CCCOC5)c5cc(C(F)(F)F)ccc54)cc3n12 (stereo not shown) [Example 51, 4-Amino-7-fluoro-N,1-dimethyl-N-(7-(trifluoromethyl)-5',6'-dihydro-2'H,4'H-pyran[isochroman-1,3'-pyran]-4-yl)imidazo[1,5-a]quinoxaline-8-carboxamide] | 1830 | 1320 | 14 | 8.02 |  |  |  |
| Cc1ncn2c1c(N)nc1cc(F)c(C(=O)N(C)C3COC4(CCCOC4)c4cc(C(F)(F)F)ccc43)cc12 (stereo not shown) [Example 52, 4-Amino-7-fluoro-N,3-dimethyl-N-(7-(trifluoromethyl)-5',6'-dihydro-2'H,4'H-pyran[isochroman-1,3'-pyran]-4-yl)imidazo[1,5-a]quinoxaline-8-carboxamide] | 602 | 539 | 14.9 | 8.06 |  |  |  |
| CN(C(=O)c1ccc2nc(N)c3cncn3c2c1)[C@H]1COC2(CC2)c2cc(C(F)(F)F)ccc21 [Example 53, (R)-4-amino-N-methyl-N-(7'-(trifluoromethyl)spiro[cyclopropane-1,1'-isochroman]-4'-yl)imidazo[1,5-a]quinoxaline-8-carboxamide] | 7590 | 1750 | 682 | 419 |  |  |  |
| CN(C(=O)c1ccc2nc(N)c3cncn3c2c1)[C@@H]1COC(C)(C)c2cc(N3CCOCC3)ccc21 [Example 98, (S)-4-amine-N-(1,1-dimethyl-7-morpholinoisochroman-4-yl)-N-methylimidazo[1,5-a]quinoxaline-8-carboxamide] | > 10000 | 8100 | 57.5 | 47.9 |  |  |  |
| CN(C(=O)c1ccc2nc(N)c3cncn3c2c1)[C@@H]1COC2(CCOCC2)c2cc(C(F)(F)F)ccc21 [Example 100, (S)-4-amino-N-methyl-N-(7'-(trifluoromethyl)-2',3',5',6'-tetrahydrospiro[isochroman-1,4'-pyran]-4-yl)imidazo[1,5-a]quinoxaline-8-carboxamide] | 902 | 938 | 8.5 | 5.2 |  |  |  |
| CN(C(=O)c1ccc2nc(N)c3cncn3c2c1)[C@H]1COC2(CCOCC2)c2cc(C(F)(F)F)ccc21 [Example 101, (R)-4-amino-N-methyl-N-(7'-(trifluoromethyl)-2',3',5',6'-tetrahydrospiro[isochroman-1,4'-pyran]-4-yl)imidazo[1,5-a]quinoxaline-8-carboxamide] | 9490 | 5640 | > 1000 | 403 |  |  |  |
